Patent publication US11377442B2, “Small molecule agonists and antagonists of NR2F6 activity” (ZANDER THERAPEUTICS, INC., priority 2016, dated 2022)
Where two headings read alike, the source gives them in different places.

How the values were obtained:
Format in all cases: cell-based
NR2F6 = molecular target: T1, NR2F6 (Homo sapiens, UniProt P10588); assay: NR2F6 agonist screening, Firefly signal cmpd/DMSO
T1 construct: expressed in transfected cells; also transient transfection
T1 sequence (P10588 1-404): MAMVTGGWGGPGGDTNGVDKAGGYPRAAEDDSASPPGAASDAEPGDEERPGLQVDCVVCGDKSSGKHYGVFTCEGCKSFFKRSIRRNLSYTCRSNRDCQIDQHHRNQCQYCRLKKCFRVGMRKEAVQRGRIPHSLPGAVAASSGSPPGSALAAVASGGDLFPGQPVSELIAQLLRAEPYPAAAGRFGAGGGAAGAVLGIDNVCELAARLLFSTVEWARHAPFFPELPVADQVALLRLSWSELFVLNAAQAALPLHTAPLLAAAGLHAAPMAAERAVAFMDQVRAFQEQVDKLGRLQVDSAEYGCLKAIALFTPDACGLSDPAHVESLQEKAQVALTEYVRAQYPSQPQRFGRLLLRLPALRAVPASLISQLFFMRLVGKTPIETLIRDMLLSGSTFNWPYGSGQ

Renilla [1] = assay: Renilla signal in NR2F6 agonist screening, cmpd/DMSO; details: Renilla
HEK293 pGL4 = assay: Firefly_pGL signal, cmpd/DMSO (pGL4 control cells); details: Homo sapiens
NR2F6 LBD = molecular target: T2, NR2F6 LBD (Homo sapiens, UniProt P10588); assay: NR2F6 LBD transient transfection
T2 construct: expressed in transfected cells
T2 sequence (P10588 165-393 limits assumed): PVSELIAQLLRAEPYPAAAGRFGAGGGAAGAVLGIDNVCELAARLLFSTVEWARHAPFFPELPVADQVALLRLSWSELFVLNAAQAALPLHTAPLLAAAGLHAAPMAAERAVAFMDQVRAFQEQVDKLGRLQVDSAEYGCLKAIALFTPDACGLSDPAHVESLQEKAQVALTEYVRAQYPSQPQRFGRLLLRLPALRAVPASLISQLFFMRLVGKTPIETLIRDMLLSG
Outline: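 LBD-transfected cells treated at 40, 10, 2 and 0.5 μM (4 replicates); cytotoxicity measured in parallel, normalized to DMSO (0%) and zero signal (100%). Higher concentrations excluded where signal loss reflected toxicity.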

Renilla [2] = assay: Renilla signal, LBD, cmpd/DMSO (NR2F6 LBD transfected cells)
[3] = read-out: Renilla F4, cmpd/DMSO (mean)
[4] = F4, 1% FBS, read-out: Renilla, F4, 1% FBS, cmpd/DMSO (mean)
[5] = F4, 10% FBS, read-out: Renilla, F4, 10% FBS, cmpd/DMSO (mean)

## CC(C)OCCCN[C@H]1CS(=O)(=O)C[C@@H]1S(=O)(=O)c1ccc(Cl)cc1 [Compound D138]
NR2F6; 0.5 uM
  Firefly F4, cmpd/DMSO (mean): 1.0
NR2F6; 2 uM
  Firefly F4, cmpd/DMSO (mean): 1.1
NR2F6; 10 uM
  Firefly F4, cmpd/DMSO (mean): 2.6
NR2F6; 40 uM
  Firefly F4, cmpd/DMSO (mean): 1.7
NR2F6; 1% FBS, 10 uM
  F4, Firefly/Renilla for S/B(F4) > 3: 2.2
  Firefly, F4/pGL4 for S/B(F4) > 3: 2.7
  Firefly, F4, 1% FBS, cmpd/DMSO (mean): 4.2
NR2F6; 1% FBS, 40 uM
  F4, Firefly/Renilla for S/B(F4) > 3: 1.1
  Firefly, F4/pGL4 for S/B(F4) > 3: 1.9
  Firefly, F4, 1% FBS, cmpd/DMSO (mean): 3.3
NR2F6; 10% FBS, 10 uM
  F4, Firefly/Renilla for S/B(F4) > 3: 1.6
  Firefly, F4/pGL4 for S/B(F4) > 3: 1.8
  Firefly, F4, 10% FBS, cmpd/DMSO (mean): 3.1
NR2F6; 10% FBS, 40 uM
  F4, Firefly/Renilla for S/B(F4) > 3: 3.2
  Firefly, F4/pGL4 for S/B(F4) > 3: 3.2
  Firefly, F4, 10% FBS, cmpd/DMSO (mean): 12
NR2F6; 1% FBS, 0.5 uM
  Firefly, F4, 1% FBS, cmpd/DMSO (mean): 0.8
NR2F6; 1% FBS, 2 uM
  Firefly, F4, 1% FBS, cmpd/DMSO (mean): 1.9
NR2F6; 10% FBS, 0.5 uM
  Firefly, F4, 10% FBS, cmpd/DMSO (mean): 1.8
NR2F6; 10% FBS, 2 uM
  Firefly, F4, 10% FBS, cmpd/DMSO (mean): 1.3
Renilla [1]; [3]
  fold induction at 0.5 µM: 0.8
  fold induction at 2 µM: 1
  fold induction at 10 µM: 1.2
  fold induction at 40 µM: 2.3
Renilla [1]; [4]
  fold induction at 0.5 µM: 1.3
  fold induction at 2 µM: 1.4
  fold induction at 10 µM: 1.9
  fold induction at 40 µM: 2.9
Renilla [1]; [5]
  fold induction at 0.5 µM: 1.4
  fold induction at 2 µM: 1.4
  fold induction at 10 µM: 2
  fold induction at 40 µM: 3.6
HEK293 pGL4; HEK293, 0.5 uM, read-out: Firefly pGL4, cmpd/DMSO (mean)
  fold induction at 0.5 µM: 0.9
HEK293 pGL4; HEK293, 2 uM, read-out: Firefly pGL4, cmpd/DMSO (mean)
  fold induction at 2 µM: 0.9
HEK293 pGL4; HEK293, 10 uM, read-out: Firefly pGL4, cmpd/DMSO (mean)
  fold induction at 10 µM: 1.5
HEK293 pGL4; HEK293, 40 uM, read-out: Firefly pGL4, cmpd/DMSO (mean)
  fold induction at 40 µM: 1.5
HEK293 pGL4; HEK293, pGL4, 1% FBS, 0.5 uM, read-out: Firefly, pGL4, 1% FBS, cmpd/DMSO (mean)
  fold induction at 0.5 µM: 1
HEK293 pGL4; HEK293, pGL4, 1% FBS, 2 uM, read-out: Firefly, pGL4, 1% FBS, cmpd/DMSO (mean)
  fold induction at 2 µM: 1
HEK293 pGL4; HEK293, pGL4, 1% FBS, 10 uM, read-out: Firefly, pGL4, 1% FBS, cmpd/DMSO (mean)
  fold induction at 10 µM: 1.6
HEK293 pGL4; HEK293, pGL4, 1% FBS, 40 uM, read-out: Firefly, pGL4, 1% FBS, cmpd/DMSO (mean)
  fold induction at 40 µM: 1.7
HEK293 pGL4; HEK293, pGL4, 10% FBS, 0.5 uM, read-out: Firefly, pGL4, 10% FBS, cmpd/DMSO (mean)
  fold induction at 0.5 µM: 1.1
HEK293 pGL4; HEK293, pGL4, 10% FBS, 2 uM, read-out: Firefly, pGL4, 10% FBS, cmpd/DMSO (mean)
  fold induction at 2 µM: 1
HEK293 pGL4; HEK293, pGL4, 10% FBS, 10 uM, read-out: Firefly, pGL4, 10% FBS, cmpd/DMSO (mean)
  fold induction at 10 µM: 1.7
HEK293 pGL4; HEK293, pGL4, 10% FBS, 40 uM, read-out: Firefly, pGL4, 10% FBS, cmpd/DMSO (mean)
  fold induction at 40 µM: 3.6
NR2F6 LBD; 0.5 uM
  Firefly LBD, cmpd/DMSO (mean): 1.3
NR2F6 LBD; 2 uM
  Firefly LBD, cmpd/DMSO (mean): 1.8
NR2F6 LBD; 10 uM
  Firefly LBD, cmpd/DMSO (mean): 3.7
NR2F6 LBD; 40 uM
  Firefly LBD, cmpd/DMSO (mean): 0.4
Renilla [2]; 0.5 uM
  Renilla LBD, cmpd/DMSO (mean): 0.9
Renilla [2]; 2 uM
  Renilla LBD, cmpd/DMSO (mean): 1.1
Renilla [2]; 10 uM
  Renilla LBD, cmpd/DMSO (mean): 0.9
Renilla [2]; 40 uM
  Renilla LBD, cmpd/DMSO (mean): 0.3
